# Laboratory results published in patent US12018021B2 (UCB Biopharma SRL, priority 2018, dated 2024).
# pIC50: −log10 of the molar value.
# Target: IgE-Tb / sFcεRIα-Y131A-AF488 (Homo sapiens, UniProt P01854, N146Q/N252Q)
# Test: IgE-Tb / sFcεRIα-Y131A-AF488 FRET assay (protocol for examples 234 to 501)
# Assay type: binding
# Conditions: examples 234 to 501: compound with IgE-Tb 30 minutes before sFcεRIα-Y131A-AF488, incubated 18 hours at room temperature; read-out: Y131A FRET IC50 range
# Procedure: For examples 234 to 501, the assay was conducted according to the following: Each assay reaction was conducted in a volume of 25 μl in a 384-well half-volume plate. 10 point compound serial dilutions (3-fold) were generated in DMSO at a concentration of ×50 that of the final assay concentration (FAC). Compound solutions were then prepared by diluting 10-fold in assay buffer. For the assay, 5l of diluted compound was added to 10 μl of IgE-Tb and incubated for 30 minutes before the addition of 10 μ[…]. FRET reagents FACs were 5 nM IgE-Tb, 25 nM […]. Usually the top FAC of compound in the assay was 10 μM. The final DMSO concentration was 2%. […] The maximum FRET signal (MAX) was measured in wells containing FRET reagents but no compound. The assay was incubated for 18 hours at room temperature, protected from light and evaporation, and with gentle agitation. Measurement of FRET for each well was carried out by exciting at 337 nm and measuring emission at 490/520 nm using a PHERAstar FSX plate reader (BMG Labtech). FRET ratio was calculated as follows: Emission at 520/7Emission at 490×1000. The FRET ratio was used for the data analysis. […] Z' above 0.5 was considered a good assay. Background signal (MIN) was subtracted from all wells. […] Percent inhibition was plotted against compound concentration. IC50 values for each compound were determined using four parameter logistic fit model using the XLFIT5 software package.
# Sequence of IgE-Tb / sFcεRIα-Y131A-AF488 (P01854 whole entry N146Q/N252Q): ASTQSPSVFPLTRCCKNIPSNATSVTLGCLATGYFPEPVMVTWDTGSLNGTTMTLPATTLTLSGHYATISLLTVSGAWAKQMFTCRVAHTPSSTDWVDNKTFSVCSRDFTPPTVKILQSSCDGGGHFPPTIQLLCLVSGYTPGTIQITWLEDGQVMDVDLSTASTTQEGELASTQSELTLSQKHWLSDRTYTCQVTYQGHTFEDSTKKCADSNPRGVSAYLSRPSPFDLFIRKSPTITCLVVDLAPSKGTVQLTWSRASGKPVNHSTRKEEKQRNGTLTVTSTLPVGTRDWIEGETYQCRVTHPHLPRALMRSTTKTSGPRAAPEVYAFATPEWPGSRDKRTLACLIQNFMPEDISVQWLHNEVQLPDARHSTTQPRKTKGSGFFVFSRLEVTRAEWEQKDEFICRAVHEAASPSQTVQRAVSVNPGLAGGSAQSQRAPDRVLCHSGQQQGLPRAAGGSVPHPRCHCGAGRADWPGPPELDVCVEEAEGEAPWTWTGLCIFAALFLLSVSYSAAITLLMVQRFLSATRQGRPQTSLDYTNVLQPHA
row,Compound,pIC50
1,"Cn1nc(C(F)F)cc1Nc1nncn1[C@H]1CCc2sc(NC(=O)[C@H]3C[C@H](F)C3)c(C(=O)NC[C@H]3CC3(F)F)c2C1 (relative stereo) [Example 472, (5S)—N-[[(1R*)-2,2-difluorocyclopropyl]methyl]-5-[3-[[5-(difluoromethyl)-2-methyl-pyrazol-3-yl]amino]-1,2,4-triazol-4-yl]-2-[trans-(3-fluorocyclobutanecarbonyl)amino]-4,5,6,7-tetrahydrobenzothiophene-3-carboxamide [* or S]]",> 6.00
2,"Cn1nc(C(F)F)cc1Nc1nncn1[C@H]1CCc2sc(NC(=O)[C@H]3CC3(F)F)c(C(=O)NC[C@H]3C[C@H]3F)c2C1 (relative stereo) [Example 498, (5S)-2-[[(1R*)-2,2-difluorocyclopropanecarbonyl]amino]-5-[3-[[5-(difluoromethyl)-2-methyl-pyrazol-3-yl]amino]-1,2,4-triazol-4-yl]-N-[[(1R,2R)-2-fluorocyclopropyl]methyl]-4,5,6,7-tetrahydrobenzothiophene-3-carboxamide (* or S)]",> 6.00
3,"Cc1cc(Nc2nncn2[C@H]2CCc3sc(NC(=O)[C@H]4CC45CC5)c(C(=O)NCC4CC4)c3C2)n(C)n1 (relative stereo) [Example 500, (5S)—N-(cyclopropylmethyl)-5-[3-[(2,5-dimethylpyrazol-3-yl)amino]-1,2,4-triazol-4-yl]-2-[[(2S*)-spiro[2.2]pentane-2-carbonyl]amino]-4,5,6,7-tetrahydrobenzothiophene-3-carboxamide (* or R)]",> 6.00
4,"O=C(NCC1CC1)c1c(NC(=O)C2CC2)sc2c1C[C@@H](n1cnnc1NC1CCS(=O)(=O)C1)CC2 (single isomer, unassigned) [Example 234, (5S)-2-(cyclopropanecarbonylamino)-N-(cyclopropylmethyl)-5-[3-[[(3S*)-1,1-dioxothiolan-3-yl]amino]-1,2,4-triazol-4-yl]-4,5,6,7-tetrahydrobenzothiophene-3-carboxamide]",> 6.00
5,"Cc1c(Nc2nncn2[C@H]2CCc3sc(NC(=O)C4CC4)c(C(=O)NCC4CC4)c3C2)cccc1[S@@](C)(=N)=O (single isomer, unassigned) [Example 236]",> 6.00
6,"Cc1c(Nc2nncn2[C@H]2CCc3sc(NC(=O)C4CC4)c(C(=O)NCC4CC4)c3C2)cccc1[S@](C)(=N)=O (single isomer, unassigned) [Example 237]",> 6.00
7,"CC(=O)N1CC[C@](C)(Nc2nncn2[C@H]2CCc3sc(NC(=O)C4CC4)c(C(=O)NCC4CC4)c3C2)C1 (single isomer, unassigned) [Example 239, (5S)-5-[3-[[(3*)-1-acetyl-3-methyl-pyrrolidin-3-yl]amino]-1,2,4-triazol-4-yl]-2-(cyclopropanecarbonylamino)-N-(cyclopropylmethyl)-4,5,6,7-tetrahydrobenzothiophene-3-carboxamide]",> 6.00
8,"CC1CN(S(C)(=O)=O)CC1Nc1nncn1[C@H]1CCc2sc(NC(=O)C3CC3)c(C(=O)NCC3CC3)c2C1 (single isomer, unassigned) [Example 242]",> 6.00
9,"C[S@](=N)(=O)c1cccc(Nc2nncn2[C@H]2CCc3sc(NC(=O)C4CC4)c(C(=O)NCC4CC4)c3C2)c1 (single isomer, unassigned) [Example 253]",> 6.00
10,"C[S@@](=N)(=O)c1cccc(Nc2nncn2[C@H]2CCc3sc(NC(=O)C4CC4)c(C(=O)NCC4CC4)c3C2)c1 (single isomer, unassigned) [Example 254]",> 6.00
11,"CS(=O)(=O)c1cccc(Nc2nncn2[C@H]2CCc3sc(NC(=O)C4CC45CC5)c(C(=O)NCC4CC4)c3C2)n1 (single isomer, unassigned) [Example 256, (5S)—N-(cyclopropylmethyl)-5-[3-[(6-methylsulfonyl-2-pyridyl)amino]-1,2,4-triazol-4-yl]-2-[[(2S*)-spiro[2.2]pentane-2-carbonyl]amino]-4,5,6,7-tetrahydrobenzothiophene-3-carboxamide]",> 6.00
12,"CC1CCCCC1Nc1nncn1[C@H]1CCc2sc(NC(=O)C3CC3)c(C(=O)NCC3CC3)c2C1 (single isomer, unassigned) [Example 269]",> 6.00
13,"O=C1CC(Nc2nncn2[C@H]2CCc3sc(NC(=O)C4CC4)c(C(=O)NCC4CC4)c3C2)CN1 (single isomer, unassigned) [Example 271, (5S)-2-(cyclopropanecarbonylamino)-N-(cyclopropylmethyl)-5-[3-[[(3R*)-5-oxopyrrolidin-3-yl]amino]-1,2,4-triazol-4-yl]-4,5,6,7-tetrahydrobenzothiophene-3-carboxamide]",> 6.00
14,"CC1C(Nc2nncn2[C@H]2CCc3sc(NC(=O)C4CC4)c(C(=O)NCC4CC4)c3C2)CCN1S(C)(=O)=O (single isomer, unassigned) [Example 274]",> 6.00
15,"Cc1ccc(C2CC(Nc3nncn3[C@H]3CCc4sc(NC(=O)C5CC5)c(C(=O)NCC5CC5)c4C3)C2)cn1 (single isomer, unassigned) [Example 276]",> 6.00
16,"Cn1nc(C(F)F)cc1Nc1nncn1[C@H]1CCc2sc(NC(=O)C3CC3(F)F)c(C(=O)NC[C@H]3C[C@H](F)C3)c2C1 (single isomer, unassigned) [Example 278, (5S)-2-[[(1R*)-2,2-difluorocyclopropanecarbonyl]amino]-5-[3-[[5-(difluoromethyl)-2-methyl-pyrazol-3-yl]amino]-1,2,4-triazol-4-yl]-N-[trans-(3-fluorocyclobutyl)methyl]-4,5,6,7-tetrahydrobenzothiophene-3-carboxamide]",> 6.00
17,"Cn1nc(OC(F)F)cc1Nc1nncn1[C@H]1CCc2sc(NC(=O)C3CC3(F)F)c(C(=O)N[C@H]3C[C@H](F)C3)c2C1 (single isomer, unassigned) [Example 279, (5S)-2-[[(1R*)-2,2-difluorocyclopropanecarbonyl]amino]-5-[3-[[5-(difluoromethoxy)-2-methyl-pyrazol-3-yl]amino]-1,2,4-triazol-4-yl]-N-(trans-3-fluorocyclobutyl)-4,5,6,7-tetrahydrobenzothiophene-3-carboxamide]",> 6.00
18,"Cn1nc(OC(F)F)cc1Nc1nncn1[C@H]1CCc2sc(NC(=O)C3CC3(F)F)c(C(=O)NC[C@H]3C[C@H](F)C3)c2C1 (single isomer, unassigned) [Example 280, (5S)-2-[[(1R*)-2,2-difluorocyclopropanecarbonyl]amino]-5-[3-[[5-(difluoromethoxy)-2-methyl-pyrazol-3-yl]amino]-1,2,4-triazol-4-yl]-N-[trans-(3-fluorocyclobutyl)methyl]-4,5,6,7-tetrahydrobenzothiophene-3-carboxamide]",> 6.00
19,"Cn1nc(OC(F)F)cc1Nc1nncn1[C@H]1CCc2sc(NC(=O)C3CC3(F)F)c(C(=O)NC[C@@H]3C[C@@H]3F)c2C1 (single isomer, unassigned) [Example 281, (5S)-2-[[(1S*)-2,2-difluorocyclopropanecarbonyl]amino]-5-[3-[[5-(difluoromethoxy)-2-methyl-pyrazol-3-yl]amino]-1,2,4-triazol-4-yl]-N-[[(1S,2S)-2-fluorocyclopropyl]methyl]-4,5,6,7-tetrahydrobenzothiophene-3-carboxamide]",> 6.00
20,"Cn1nc(C(F)F)cc1Nc1nncn1[C@H]1CCc2sc(NC(=O)C3CC3(F)F)c(C(=O)NCC3CC3(F)F)c2C1 (single isomer, unassigned) [Example 282]",> 6.00
21,"Cn1nc(C(F)F)cc1Nc1nncn1[C@H]1CCc2sc(NC(=O)C3CC3(F)F)c(C(=O)NCC3CC3(F)F)c2C1 (single isomer, unassigned) [Example 283]",> 6.00
22,"O=C(NCC1CC1)c1c(NC(=O)C2CC2)sc2c1C[C@@H](n1cnnc1NC1CCC3(CCN(c4ncccn4)C3)C1)CC2 (single isomer, unassigned) [Example 289]",> 6.00
23,"Cn1nc(OC(F)F)cc1Nc1nncn1[C@H]1CCc2sc(NC(=O)[C@H]3C[C@H]3F)c(C(=O)NCC3CC3)c2C1 (single isomer, unassigned) [Example 349]",> 6.00
24,"Cn1nc(OC(F)F)cc1Nc1nncn1[C@H]1CCc2sc(NC(=O)[C@@H]3C[C@@H]3F)c(C(=O)NCC3CC3)c2C1 (single isomer, unassigned) [Example 350]",> 6.00
25,"Cn1nc(C(F)F)cc1Nc1nncn1[C@H]1CCc2sc(NC(=O)[C@@H]3C[C@@H]3F)c(C(=O)NCC3CC3)c2C1 (single isomer, unassigned) [Example 362]",> 6.00
26,"Cn1nc(C(F)F)cc1Nc1nncn1[C@H]1CCc2sc(NC(=O)[C@H]3C[C@H]3F)c(C(=O)NCC3CC3)c2C1 (single isomer, unassigned) [Example 363]",> 6.00
27,"Cn1nc(C(F)F)cc1Nc1nncn1[C@H]1CCc2sc(NC(=O)[C@@H]3C[C@H]3F)c(C(=O)NCC3CC3)c2C1 (single isomer, unassigned) [Example 367]",> 6.00
28,"Cn1nc(OC(F)F)cc1Nc1nncn1[C@H]1CCc2sc(NC(=O)[C@H]3C[C@@H]3F)c(C(=O)NC[C@H]3CC3(F)F)c2C1 (single isomer, unassigned) [Example 374]",> 6.00
29,"Cn1nc(OC(F)F)cc1Nc1nncn1[C@H]1CCc2sc(NC(=O)[C@H]3C[C@@H]3F)c(C(=O)NC[C@@H]3CC3(F)F)c2C1 (single isomer, unassigned) [Example 375]",> 6.00
